Kd data for one compound are collected here from publication PMC8227659, “The Metarhizium anisopliae Toxin, Destruxin A, Interacts with the SEC23A and TEME214 Proteins of Bombyx mori” (Journal of Fungi, 2021).

Where a SMILES comes first, the peptide text is derived from it. [ ]: non-standard residue; d: D form. dLac(3-vinyl) = C=CC[C@@H](O)C(=O)O; NMeV = CN[C@H](C(=O)O)C(C)C; NMeA = CN[C@@H](C)C(=O)O; βAla = NCCC(=O)O

The target in the assay is T1, BmTMEM214 (BmTEME214) (Bombyx mori, UniProt A0A8R1WLS5).
T1 construct: immobilised on biosensor
T1 sequence (A0A8R1WLS5 1-663): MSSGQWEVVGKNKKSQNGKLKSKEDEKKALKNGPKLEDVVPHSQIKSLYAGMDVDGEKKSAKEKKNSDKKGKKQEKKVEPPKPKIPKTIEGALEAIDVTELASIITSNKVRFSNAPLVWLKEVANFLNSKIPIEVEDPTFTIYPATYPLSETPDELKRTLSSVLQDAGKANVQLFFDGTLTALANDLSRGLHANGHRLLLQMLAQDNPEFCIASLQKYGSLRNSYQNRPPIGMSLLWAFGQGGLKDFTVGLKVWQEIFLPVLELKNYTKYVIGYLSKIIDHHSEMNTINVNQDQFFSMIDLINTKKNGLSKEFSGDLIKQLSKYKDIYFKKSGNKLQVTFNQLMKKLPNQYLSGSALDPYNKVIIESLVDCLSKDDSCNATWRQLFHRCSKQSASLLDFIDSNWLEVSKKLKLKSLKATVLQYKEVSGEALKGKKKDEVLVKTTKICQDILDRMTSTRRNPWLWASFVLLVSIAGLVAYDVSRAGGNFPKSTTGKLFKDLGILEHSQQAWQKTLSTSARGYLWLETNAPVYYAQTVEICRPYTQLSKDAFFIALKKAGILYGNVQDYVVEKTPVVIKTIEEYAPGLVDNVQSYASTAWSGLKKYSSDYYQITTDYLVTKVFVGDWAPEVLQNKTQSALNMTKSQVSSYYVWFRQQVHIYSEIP
Put plainly: bio-layer interferometry, immobilised protein. It is filed as binding. The source says:
bio-layer interferometry, immobilised protein on BmTMEM214 (BmTEME214)

As to `C=CC[C@H]1OC(=O)CCNC(=O)[C@H](C)N(C)C(=O)[C@H](C(C)C)N(C)C(=O)[C@H]([C@@H](C)CC)NC(=O)[C@@H]2CCCN2C1=O` [DA, Destruxin A] (cyclo(I[NMeV][NMeA][βAla][dLac(3-vinyl)]P)), binding was put at a Kd of 286 nM.
